Target: BCL6 (Homo sapiens (Human), UniProt P41182)
Test: Immunofluorescence high content imaging of BCL6 degradation in T47D cells
Assay type: cell-based
Conditions: for Dmax: T47D
Summary of the method: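 BCL6 loss was quantified by high-content imaging (10×, 4 fields/well) after PFA fixation and anti-BCL6/Alexa-488 staining with Hoechst nuclear and CellMask counterstains. Compounds were applied for 3 days to T47D breast cancer cells in RPMI-10% FBS, 11 points, 3-fold steps, top 0.1 or 1 μM.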

IC50 [nM]	Dmax [%]	Structure (SMILES)
10 to 50	50 to 70	CONC(=O)COc1cc2cc(Nc3cc(N4CCN(C(C)(C)C5CCN(c6ccc7c(c6)C(=O)N(C6CCC(=O)NC6=O)C7=O)CC5)CC4)ncc3Cl)ccc2n(C)c1=O (stereo not drawn) [compound 265, 2-((6-((5-chloro-2-(4-(2-(1-(2-(2,6-dioxopiperidin-3-yl)-1,3-dioxoisoindolin-5-yl)piperidin-4-yl)propan-2-yl)piperazin-1-yl)pyridin-4-yl)amino)-1-methyl-2-oxo-1,2-dihydroquinolin-3-yl)oxy)-N-methoxyacetamide]
< 10	≥ 70	CNC(=O)COc1cc2cc(Nc3nc(N4CCN(C(C)(C)C5CCN(c6cccc7c6C(=O)N(C6CCC(=O)NC6=O)C7=O)CC5)CC4)ncc3Cl)ccc2n(C)c1=O (stereo not drawn) [compound 266, 2-((6-((5-chloro-2-(4-(2-(1-(2-(2,6-dioxopiperidin-3-yl)-1,3-dioxoisoindolin-4-yl)piperidin-4-yl)propan-2-yl)piperazin-1-yl)pyrimidin-4-yl)amino)-1-methyl-2-oxo-1,2-dihydroquinolin-3-yl)oxy)-N-methylacetamide]
≥ 100	–	Cn1c(=O)c(-c2nnc[nH]2)cc2cc(Nc3nc(N4CCC(CN5CCN(c6ccc7c(c6)C(=O)N(C6CCC(=O)NC6=O)C7=O)CC5)CC4)ncc3Cl)ccc21 (stereo not drawn) [compound 282, 5-(4-{[1-(5-chloro-4-{[1-methyl-2-oxo-3-(4H-1,2,4-triazol-3-yl)-1,2-dihydroquinolin-6-yl]amino}pyrimidin-2-yl)piperidin-4-yl]methyl}piperazin-1-yl)-2-(2,6-dioxopiperidin-3-yl)-2,3-dihydro-1H-isoindole-1,3-dione]
≥ 100	–	CNC(=O)COc1cc2cc(Nc3nc(N4CCC(CN5CCC(n6cnc7c(C(=O)NC8CCC(=O)NC8=O)cccc76)CC5)CC4)ncc3Cl)ccc2n(C)c1=O (stereo not drawn) [compound 283, 1-[1-({1-[5-chloro-4-({1-methyl-3-[(methylcarbamoyl)methoxy]-2-oxo-1,2-dihydroquinolin-6-yl}amino)pyrimidin-2-yl]piperidin-4-yl}methyl)piperidin-4-yl]-N-(2,6-dioxopiperidin-3-yl)-1H-1,3-benzodiazole-4-carboxamide]
10 to 50	< 50	CNC(=O)COc1cc2cc(Nc3nc(N4C[C@@H](C)N(CC5CCN(c6ccc(C(=O)NC7CCC(=O)NC7=O)c(F)c6)CC5)[C@@H](C)C4)ncc3Cl)ccc2n(C)c1=O (stereo partly drawn) [compound 284, 4-(4-{[(2R,6S)-4-[5-chloro-4-({1-methyl-3-[(methylcarbamoyl)methoxy]-2-oxo-1,2-dihydroquinolin-6-yl}amino)pyrimidin-2-yl]-2,6-dimethylpiperazin-1-yl]methyl}piperidin-1-yl)-N-(2,6-dioxopiperidin-3-yl)-2-fluorobenzamide]
10 to 50	< 50	Cc1nnc(-c2cc3cc(Nc4nc(N5CCN(C(C)(C)C6CCN(c7ccc8c(c7)C(=O)N(C7CCC(=O)NC7=O)C8=O)CC6)CC5)ncc4Cl)ccc3n(C)c2=O)o1 (stereo not drawn) [compound 285, 5-(4-{2-[4-(5-chloro-4-{[1-methyl-3-(5-methyl-1,3,4-oxadiazol-2-yl)-2-oxo-1,2-dihydroquinolin-6-yl]amino}pyrimidin-2-yl)piperazin-1-yl]propan-2-yl}piperidin-1-yl)-2-(2,6-dioxopiperidin-3-yl)-2,3-dihydro-1H-isoindole-1,3-dione]
50 to 100	< 50	CNC(=O)COc1cc2cc(Nc3nc(N4CCC(CN5CCC(c6coc(C(=O)NC7CCC(=O)NC7=O)c6)CC5)CC4)ncc3Cl)ccc2n(C)c1=O (stereo not drawn) [compound 286, 4-[1-({1-[5-chloro-4-({1-methyl-3-[(methylcarbamoyl)methoxy]-2-oxo-1,2-dihydroquinolin-6-yl}amino)pyrimidin-2-yl]piperidin-4-yl}methyl)piperidin-4-yl]-N-(2,6-dioxopiperidin-3-yl)furan-2-carboxamide]
≥ 100	–	CNC(=O)CCC1Oc2cc(Nc3nc(N4CCN(C(C)(C)C5CCN(c6ccc7c(c6)C(=O)N(C6CCC(=O)NC6=O)C7=O)CC5)CC4)ncc3Cl)ccc2N(C)C1=O (stereo not drawn) [compound 287, 3-[7-({5-chloro-2-[4-(2-{1-[2-(2,6-dioxopiperidin-3-yl)-1,3-dioxo-2,3-dihydro-1H-isoindol-5-yl]piperidin-4-yl}propan-2-yl)piperazin-1-yl]pyrimidin-4-yl}amino)-4-methyl-3-oxo-3,4-dihydro-2H-1,4-benzoxazin-2-yl]-N-methylpropanamide]
50 to 100	50 to 70	CNC(=O)COc1cc2cc(Nc3nc(N4CCC(CN5[C@H](C)CN(c6ccc(C(=O)NC7CCC(=O)NC7=O)c(F)c6)C[C@@H]5C)CC4)ncc3Cl)ccc2n(C)c1=O (stereo partly drawn) [compound 288, 4-[(3R,5S)-4-({1-[5-chloro-4-({1-methyl-3-[(methylcarbamoyl)methoxy]-2-oxo-1,2-dihydroquinolin-6-yl}amino)pyrimidin-2-yl]piperidin-4-yl}methyl)-3,5-dimethylpiperazin-1-yl]-N-(2,6-dioxopiperidin-3-yl)-2-fluorobenzamide]
10 to 50	≥ 70	CNC(=O)COc1cc2cc(Nc3nc(N4CCC(CN5CCC(c6ccc7c(c6)C(=O)N(C6CCC(=O)NC6=O)C7=O)CC5)CC4)ncc3Cl)ccc2n(C)c1=O (stereo not drawn) [compound 289, 2-{[6-({5-chloro-2-[4-({4-[2-(2,6-dioxopiperidin-3-yl)-1,3-dioxo-2,3-dihydro-1H-isoindol-5-yl]piperidin-1-yl}methyl)piperidin-1-yl]pyrimidin-4-yl}amino)-1-methyl-2-oxo-1,2-dihydroquinolin-3-yl]oxy}-N-methylacetamide]
10 to 50	≥ 70	CNC(=O)COc1cc2cc(Nc3nc(N4CCN(C(C)(C)C5CCN(c6cccc(C(=O)NC7CCC(=O)NC7=O)c6F)CC5)CC4)ncc3Cl)ccc2n(C)c1=O (stereo not drawn) [compound 291, 3-[4-(2-{4-[5-chloro-4-({1-methyl-3-[(methylcarbamoyl)methoxy]-2-oxo-1,2-dihydroquinolin-6-yl}amino)pyrimidin-2-yl]piperazin-1-yl}propan-2-yl)piperidin-1-yl]-N-(2,6-dioxopiperidin-3-yl)-2-fluorobenzamide]
< 10	50 to 70	CCn1c(=O)c(OCC(=O)NC)cc2cc(Nc3nc(N4CCC(OC5CCN(c6cccc7c6C(=O)N(C6CCC(=O)NC6=O)C7=O)CC5)CC4)ncc3Cl)ccc21 (stereo not drawn) [compound 292, 2-{[6-({5-chloro-2-[4-({1-[2-(2,6-dioxopiperidin-3-yl)-1,3-dioxo-2,3-dihydro-1H-isoindol-4-yl]piperidin-4-yl}oxy)piperidin-1-yl]pyrimidin-4-yl}amino)-1-ethyl-2-oxo-1,2-dihydroquinolin-3-yl]oxy}-N-methylacetamide]
10 to 50	50 to 70	CNC(=O)COc1cc2cc(Nc3nc(N4CCC(OC5CCN(c6cccc7c6C(=O)N(C6CCC(=O)NC6=O)C7=O)CC5)CC4)ncc3Cl)ccc2n(C(C)C)c1=O (stereo not drawn) [compound 293, 2-{[6-({5-chloro-2-[4-({1-[2-(2,6-dioxopiperidin-3-yl)-1,3-dioxo-2,3-dihydro-1H-isoindol-4-yl]piperidin-4-yl}oxy)piperidin-1-yl]pyrimidin-4-yl}amino)-2-oxo-1-(propan-2-yl)-1,2-dihydroquinolin-3-yl]oxy}-N-methylacetamide]
50 to 100	< 50	CCn1c(=O)c(OCC(=O)NC)cc2cc(Nc3nc(N4CCO[C@H](COc5ccc6c(c5)C(=O)N(C5CCC(=O)NC5=O)C6=O)C4)ncc3Cl)ccc21 (stereo partly drawn) [compound 294, 2-{[6-({5-chloro-2-[(2S)-2-({[2-(2,6-dioxopiperidin-3-yl)-1,3-dioxo-2,3-dihydro-1H-isoindol-5-yl]oxy}methyl)morpholin-4-yl]pyrimidin-4-yl}amino)-1-ethyl-2-oxo-1,2-dihydroquinolin-3-yl]oxy}-N-methylacetamide]
< 10	50 to 70	CCn1c(=O)c(OCC(=O)NC)cc2cc(Nc3nc(N4CCN(CC5CCN(c6cccc(C(=O)NC7CCC(=O)NC7=O)c6F)CC5)CC4)ncc3Cl)ccc21 (stereo not drawn) [compound 295, 3-[4-({4-[5-chloro-4-({1-ethyl-3-[(methylcarbamoyl)methoxy]-2-oxo-1,2-dihydroquinolin-6-yl}amino)pyrimidin-2-yl]piperazin-1-yl}methyl)piperidin-1-yl]-N-(2,6-dioxopiperidin-3-yl)-2-fluorobenzamide]
< 10	≥ 70	CNC(=O)COc1cc2cc(Nc3nc(N4CCN(CC5CCN(c6cccc(C(=O)NC7CCC(=O)NC7=O)c6F)CC5)CC4)ncc3Cl)ccc2n(C(C)C)c1=O (stereo not drawn) [compound 296, 3-[4-({4-[5-chloro-4-({3-[(methylcarbamoyl)methoxy]-2-oxo-1-(propan-2-yl)-1,2-dihydroquinolin-6-yl}amino)pyrimidin-2-yl]piperazin-1-yl}methyl)piperidin-1-yl]-N-(2,6-dioxopiperidin-3-yl)-2-fluorobenzamide]
< 10	< 50	CNC(=O)COc1cc2cc(Nc3nc(N4CCN(CC5CCN(c6ccc7c(c6)C(=O)N(C6CCC(=O)NC6=O)C7=O)CC5)CC4)c(C#N)cc3Cl)ccc2n(C)c1=O (stereo not drawn) [compound 297, 2-{[6-({3-chloro-5-cyano-6-[4-({1-[2-(2,6-dioxopiperidin-3-yl)-1,3-dioxo-2,3-dihydro-1H-isoindol-5-yl]piperidin-4-yl}methyl)piperazin-1-yl]pyridin-2-yl}amino)-1-methyl-2-oxo-1,2-dihydroquinolin-3-yl]oxy}-N-methylacetamide]
< 10	50 to 70	CCn1c(=O)c(OCC(=O)NC)cc2cc(Nc3nc(N4CCC(CN5CC6(C5)CN(c5ccc7c(c5)C(=O)N(C5CCC(=O)NC5=O)C7=O)C6)CC4)ncc3Cl)ccc21 (stereo not drawn) [compound 298, 2-{[6-({5-chloro-2-[4-({6-[2-(2,6-dioxopiperidin-3-yl)-1,3-dioxo-2,3-dihydro-1H-isoindol-5-yl]-2,6-diazaspiro[3.3]heptan-2-yl}methyl)piperidin-1-yl]pyrimidin-4-yl}amino)-1-ethyl-2-oxo-1,2-dihydroquinolin-3-yl]oxy}-N-methylacetamide]
